According to patent US7709495B2, “Methods and reagents for the treatment of inflammatory disorders” (CombinatoRx, Incorporated, priority 2003, dated 2010):

Experiments:
Assay type in all cases: cell-based
TNFα secretion [1] = test: TNFα secretion assay (ELISA), phorbol 12-myristate 13-acetate/ionomycin stimulated white blood cells; conditions: Homo sapiens, PBMC, read-out: % Inhibition TNFα PBMC PI
Procedure: (§1) The compound dilution matrix was assayed for the suppression of phorbol 12-myristate 13 acetate/ionomycin stimulated IL-1 and TNFα secretion as well as the suppression of lipopolysaccharide-stimulated TNFα secretion from human white blood cells using the ELISA method, as described below.
(§2) A stock solution containing prednisolone (0.36 mg/ml) was prepared in DMSO. A stock solution containing ibudilast (1.84 mg/ml) was prepared in DMSO. Master plates were prepared for dilutions of the stock solutions above.
(§3) The final single agent plates were generated by transferring 1 μL of stock solution from the specific master plate to separate dilution plates containing 99 μL of media (RPMI; Gibco BRL, #11875-085), 10% fetal bovine serum (Gibco BRL, #25140-097), 2% penicillin/streptomycin (Gibco BRL, #15140-122)) using the Packard Mini-Trak liquid handler. The dilution plates were then mixed and a 10 μL aliquot transferred from each dilution plate to the final assay plate (polystyrene 384-well plate (NalgeNunc)), which had been pre-filled with 30 μL/well RPMI media containing 33 ng/mL phorbol 12-myristate 13-acetate (Sigma, P-1585) and 2.475 ng/mL ionomycin (Sigma, I-0634) or alternatively for the LPS stimulated assay RPMI media containing 2 μg/ml lipopolysaccharide (Sigma, L-4130).
(§4) The effects of test compound combinations on TNFα secretion were assayed in white blood cells from human buffy coat stimulated with phorbol 12-myistate 13-acetate, or lipopolysaccharide as follows. Human white blood cells from buffy coat were diluted 1:50 in media (RPMI; Gibco BRL, #11875-085), 10% fetal bovine serum (Gibco BRL, #25140-097), 2% penicillin/streptomycin (Gibco BRL, #15140-122)) and 50 μL of the diluted white blood cells were placed in each well of the final assay plate created in the above section. After 16-18 hours of incubation at 37° C. with 5% CO2 in a humidified incubator, the plate was centrifuged and the supernatant transferred to a white opaque polystyrene 384 well plate (NalgeNunc, Maxisorb) coated with an anti-TNFα antibody (PharMingen, #551220). After a two-hour incubation, the plate was washed (Tecan Powerwasher 384) with PBS containing 0.1% Tween 20 and incubated for one additional hour with biotin labeled anti-TNFα antibody (PharMingen, #554511) and HRP coupled to streptavidin (PharMingen, #13047E). The plate was then washed again with 0.1% Tween 20/PBS. An HRP-luminescent substrate was added to each well, and the light intensity of each well was measured using a plate luminometer.
(§5) The percent inhibition (% I) for each well was calculated using the following formula: % I=[(avg. untreated wells−treated well)/(avg. untreated wells)]×100
(§6) The average untreated well value (avg. untreated wells) is the arithmetic mean of 30 wells from the same assay plate treated with vehicle alone.
TNFα secretion was measured by ELISA as described above after stimulation with phorbol 12-myristate 13-acetate and ionomycin. The effects of varying concentrations of ibudilast, prednisolone and a combination of ibudilast and prednisolone were compared to control wells.

TNFα secretion [2] = test: TNFα secretion assay (ELISA), lipopolysaccharide stimulated white blood cells; conditions: Homo sapiens, PBMC, read-out: % Inhibition TNFα PBMC LPS
Procedure: as §1, §2, §3, §4, §5, §6
TNFα secretion was measured by ELISA as described above after stimulation with lipopolysaccharide. The effects of varying concentrations of ibudilast, prednisolone and a combination of ibudilast and prednisolone were compared to control wells.

[3] = test system: white blood cells from human buffy coat; test: alamarBlue assay (toxicity/cell viability), PMA/ionomycin stimulated; conditions: PBMC, read-out: % Inhibition of Proliferation of PBMC PI
Procedure: as §2, §3, §5, §6
(§7) The toxicity of the test combination were assessed using alamarBlue® assayed in white blood cells from human buffy coat stimulated with LPS or phorbol 12-myistate 13-acetate and Ionomycin, as follows. Human white blood cells from buffy coat were diluted 1:50 in media (RPMI; Gibco BRL, #11875-085), 10% fetal bovine serum (Gibco BRL, #25140-097), 2% penicillin/streptomycin (Gibco BRL, #15140-122)) and 50 μL of the diluted white blood cells was placed in each well of the final assay plate created in the above section. After 16-18 hours of incubation at 37° C. with 5% CO2 in a humidified incubator, 5 μl of alamarBlue® (BioSource Intl. Inc., DAL 1100) was added to all of the wells. After 20-24 hours of incubation in 37° C. in a humidified incubator, fluorescence was then measured using a plate fluorometer.
Cell viability was measured using the alamarBlue® assay described above after stimulation with phorbol 12-myristate 13-acetate and ionomycin. The effects of varying concentrations of ibudilast, prednisolone and a combination of ibudilast and prednisolone were compared to control wells.

[4] = test system: white blood cells from human buffy coat; test: alamarBlue assay (toxicity/cell viability), lipopolysaccharide stimulated; conditions: PBMC, read-out: % Inhibition of Proliferation of PBMC LPS
Procedure: as §2, §3, §5, §6, §7
Cell viability was measured the alamarBlue® asay described above after stimulation with lipopolysaccharide. The effects of varying concentrations of ibudilast, prednisolone and a combination of ibudilast and prednisolone were compared to control wells. These wells were stimulated with lipopolysaccharide, but not receive ibudilast or prednisolone.

## CC(C)C(=O)c1c(C(C)C)nn2ccccc12 [Ibudilast, ibudilast]
TNFα secretion [1]; ibudilast 0.062 μM alone
  inhibition at 0.062 µM: 2.8%
TNFα secretion [1]; ibudilast 0.12 μM alone
  inhibition at 0.12 µM: 2.5%
TNFα secretion [1]; ibudilast 0.25 μM alone
  inhibition at 0.25 µM: 6.5%
TNFα secretion [1]; ibudilast 0.5 μM alone
  inhibition at 0.5 µM: 18%
TNFα secretion [1]; ibudilast 1 μM alone
  inhibition at 1 µM: 28%
TNFα secretion [1]; ibudilast 2 μM alone
  inhibition at 2 µM: 31%
TNFα secretion [1]; ibudilast 4 μM alone
  inhibition at 4 µM: 33%
TNFα secretion [1]; ibudilast 8 μM alone
  inhibition at 8 µM: 40%
TNFα secretion [2]; ibudilast 0.062 μM alone
  inhibition at 0.062 µM: 17%
TNFα secretion [2]; ibudilast 0.12 μM alone
  inhibition at 0.12 µM: 24%
TNFα secretion [2]; ibudilast 0.25 μM alone
  inhibition at 0.25 µM: 41%
TNFα secretion [2]; ibudilast 0.5 μM alone
  inhibition at 0.5 µM: 46%
TNFα secretion [2]; ibudilast 1 μM alone
  inhibition at 1 µM: 58%
TNFα secretion [2]; ibudilast 2 μM alone
  inhibition at 2 µM: 66%
TNFα secretion [2]; ibudilast 4 μM alone
  inhibition at 4 µM: 70%
TNFα secretion [2]; ibudilast 8 μM alone
  inhibition at 8 µM: 79%
[3]; ibudilast 0.062 μM alone
  inhibition at 0.062 µM: -1.5%
[3]; ibudilast 0.12 μM alone
  inhibition at 0.12 µM: -5.1%
[3]; ibudilast 0.25 μM alone
  inhibition at 0.25 µM: 0.84%
[3]; ibudilast 0.5 μM alone
  inhibition at 0.5 µM: -4%
[3]; ibudilast 1 μM alone
  inhibition at 1 µM: -1.9%
[3]; ibudilast 2 μM alone
  inhibition at 2 µM: 2.7%
[3]; ibudilast 4 μM alone
  inhibition at 4 µM: 3.3%
[3]; ibudilast 8 μM alone
  inhibition at 8 µM: 6.9%
[4]; ibudilast 0.062 μM alone
  inhibition at 0.062 µM: -4.6%
[4]; ibudilast 0.12 μM alone
  inhibition at 0.12 µM: -1.5%
[4]; ibudilast 0.25 μM alone
  inhibition at 0.25 µM: -1.8%
[4]; ibudilast 0.5 μM alone
  inhibition at 0.5 µM: -3.8%
[4]; ibudilast 1 μM alone
  inhibition at 1 µM: -2.9%
[4]; ibudilast 2 μM alone
  inhibition at 2 µM: 2.6%
[4]; ibudilast 4 μM alone
  inhibition at 4 µM: -2.4%
[4]; ibudilast 8 μM alone
  inhibition at 8 µM: 0.069%
